Test results taken from patent publication US20250163104A1, “MACROCYCLIC IMMUNOMODULATORS” (priority 2021, published 2025).
Where a SMILES comes first, the peptide text is derived from it. Bridges are numbered along the chain shown (N, C = ends). [ ]: non-standard residue; d: D form. The star is where a group is joined. ξ: configuration not given here. Phe(3-CF3) = N[C@@H](Cc1cccc(C(F)(F)F)c1)C(=O)O; Ala(morpholin-4-yl) = N[C@@H](CN1CCOCC1)C(=O)O; Phe(4-COOH) = N[C@@H](Cc1ccc(C(=O)O)cc1)C(=O)O; Tyr(3-Cl) = N[C@@H](Cc1ccc(O)c(Cl)c1)C(=O)O; Bip = N[C@@H](Cc1ccc(-c2ccccc2)cc1)C(=O)O; Phe(3-Me) = Cc1cccc(C[C@H](N)C(=O)O)c1; Val(3-OH) = CC(C)(O)[C@H](N)C(=O)O; 4Pal = N[C@@H](Cc1ccncc1)C(=O)O; Cha = N[C@@H](CC1CCCCC1)C(=O)O; Ile(3ξ) = CCC(C)[C@H](N)C(=O)O; Thr(3ξ) = CC(O)[C@H](N)C(=O)O; Carboxymethyl = O=C(O)C*; Orn = NCCC[C@H](N)C(=O)O; Dab = NCC[C@H](N)C(=O)O; Abu = CC[C@H](N)C(=O)O; Dap = NC[C@H](N)C(=O)O; Propargyl = C#CC*; X1 = C1CCC(*)CC1

molecular target: T1, human PD-1 / PD-L1-Ig binding on Jurkat cell line over-expressing human PD-1 (Jurkat-PD-1) (Homo sapiens, UniProt Q15116); assay: Jurkat-PD-1 Cell Binding High-Content Screening Assay (CBA); type: cell-based; settings: Jurkat HPD1_PDL1 IC50, Jurkat-PD-1 cells, PE-labeled PD-L1-Ig 20 nM final
T1 construct: expressed in transfected cells; host or cells: Jurkat
Procedure, shortened: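 Binding of fluorescent PD-L1-Ig (phycoerythrin linked via the Ig tag, 20 nM final) to PD-1-overexpressing Jurkat cells was imaged after a 2 h, 37° C compound pretreatment and 1 hour ligand incubation.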

T1 sequence (Q15116 25-288): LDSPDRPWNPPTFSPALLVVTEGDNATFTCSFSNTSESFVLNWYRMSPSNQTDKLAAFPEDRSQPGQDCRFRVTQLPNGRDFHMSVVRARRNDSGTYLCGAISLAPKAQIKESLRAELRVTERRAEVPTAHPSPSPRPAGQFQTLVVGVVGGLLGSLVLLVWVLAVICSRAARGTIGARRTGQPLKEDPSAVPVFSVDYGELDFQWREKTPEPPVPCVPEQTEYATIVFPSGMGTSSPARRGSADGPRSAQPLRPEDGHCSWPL

Structure (SMILES)	IC50 [nM]
CCC(C)[C@@H]1NC(=O)[C@H](Cc2ccc(-c3ccccc3)cc2)NC(=O)[C@H](CC(C)C)NC(=O)[C@H](Cc2cccc(C)c2)NC(=O)[C@H](CC(=O)O)NC(=O)[C@H](Cc2ccc(C(=O)O)cc2)NC(=O)[C@H](Cc2ccncc2)NC(=O)CSC[C@@H](C(=O)N[C@H](C)C(N)=O)NC(=O)[C@H](C(C)O)NC(=O)[C@H](C(C)C)NC(=O)[C@H](CC2CCCCC2)NC(=O)[C@H](CCN)NC(=O)[C@@H](CC(C)C)NC(=O)[C@H](Cc2cnc[nH]2)NC1=O (stereo partly drawn) [Compound 2611] ({CH2CO}-[4Pal][Phe(4-COOH)]D[Phe(3-Me)]L[Bip][Ile(3ξ)]H[dL][Dab][Cha]V[Thr(3ξ)]C[dA]-NH2; thioether N-14)	19.2
CC(C)C[C@H]1NC(=O)[C@H](CCCN)NC(=O)[C@H](C(C)C)NC(=O)[C@H](Cc2ccc(-c3ccccc3)cc2)NC(=O)[C@H](C(C)C)NC(=O)[C@H](Cc2c[nH]c3ccccc23)NC(=O)[C@H](CC(=O)O)NC(=O)[C@H](Cc2ccc(OCc3ccccc3)cc2)NC(=O)[C@H](CN)NC(=O)CSC[C@@H](C(=O)N[C@@H](C)C(N)=O)NC(=O)[C@H]([C@@H](C)O)NC(=O)[C@H](C(C)C)NC(=O)[C@H](CC2CCCCC2)NC(=O)[C@H](CCN)NC1=O [Compound 1528]	100

same assay, conditions: Jurkat-PD-1 cells, PE-labeled PD-L1-Ig 20 nM final; read-out: Jurkat HPD1_PDL1 IC50

Structure (SMILES)	IC50 [nM]
CC(C)C[C@H]1NC(=O)[C@H](CCCN)NC(=O)[C@H](C(C)C)NC(=O)[C@H](Cc2ccc(-c3ccccc3)cc2)NC(=O)[C@H](C(C)C)NC(=O)[C@H](Cc2c[nH]c3ccccc23)NC(=O)[C@H](CC(=O)O)NC(=O)[C@H](Cc2ccc(OCC(=O)O)cc2)NC(=O)[C@H](CN)NC(=O)CSC[C@@H](C(=O)N[C@@H](C)C(N)=O)NC(=O)[C@H]([C@@H](C)O)NC(=O)[C@H](C(C)C)NC(=O)[C@H](CC2CCCCC2)NC(=O)[C@H](Cc2cnc[nH]2)NC1=O [Compound 1525]	15.4
CC(C)C[C@H]1NC(=O)[C@H](CCCN)NC(=O)[C@H](CCC(=O)O)NC(=O)[C@H](Cc2ccc(-c3ccccc3)cc2)NC(=O)[C@H](C(C)C)NC(=O)[C@H](Cc2cccc(C(F)(F)F)c2)NC(=O)[C@H](CC(=O)O)NC(=O)[C@H](Cc2ccc(OCC(=O)O)cc2)NC(=O)[C@H](Cc2ccncc2)NC(=O)CSC[C@@H](C(=O)N[C@@H](C)C(N)=O)NC(=O)[C@H]([C@@H](C)O)NC(=O)[C@H](C(C)C)NC(=O)[C@H](CC2CCCCC2)NC(=O)[C@H](CCN)NC1=O [Compound 1460]	11.2
Cc1cccc(C[C@@H]2NC(=O)[C@H](CC(=O)O)NC(=O)[C@H](Cc3ccc(OCC(=O)O)cc3)NC(=O)[C@H](Cc3ccncc3)NC(=O)CSC[C@@H](C(=O)N[C@@H](CCN)C(N)=O)NC(=O)[C@H](CO)NC(=O)[C@H](C(C)(C)O)NC(=O)[C@H](CC3CCCCC3)NC(=O)[C@H](CCN)NC(=O)[C@@H](CC(C)C)NC(=O)[C@H](CCC(N)=O)NC(=O)[C@H](Cc3ccc(OCC(=O)O)cc3)NC(=O)[C@H](Cc3ccc(-c4ccccc4)cc3)NC(=O)[C@H](Cc3ccc(OCC(=O)O)cc3)NC2=O)c1 [Compound 2642] ({CH2CO}-[4Pal]Y(Carboxymethyl)D[Phe(3-Me)]Y(Carboxymethyl)[Bip]Y(Carboxymethyl)Q[dL][Dab][Cha][Val(3-OH)]SC[Dab]-NH2; thioether N-14)	3.5
CC(C)C[C@H]1NC(=O)[C@H](CCCN)NC(=O)[C@H](Cc2ccc(C(=O)O)cc2)NC(=O)[C@H](Cc2ccc(-c3ccccc3)cc2)NC(=O)[C@H](Cc2ccc(-c3ccccc3)cc2)NC(=O)[C@H](Cc2cccc(C(F)(F)F)c2)NC(=O)[C@H](CC(=O)O)NC(=O)[C@H](Cc2ccc(C(=O)O)cc2)NC(=O)[C@H](CN2CCOCC2)NC(=O)CSC[C@@H](C(=O)N[C@@H](CCN)C(N)=O)NC(=O)[C@H](CCC(=O)O)NC(=O)[C@H](C(C)C)NC(=O)[C@H](CC2CCCCC2)NC(=O)[C@H](CCN)NC1=O [Example 2746] ({CH2CO}-[Ala(morpholin-4-yl)][Phe(4-COOH)]D[Phe(3-CF3)][Bip][Bip][Phe(4-COOH)][Orn][dL][Dab][Cha]VEC[Dab]-NH2; thioether N-14)	3.7
C#CCOc1ccc(C[C@@H]2NC(=O)[C@H](CCCNC(=N)N)NC(=O)CSC[C@@H](C(=O)N[C@@H](CCN)C(N)=O)NC(=O)[C@H](CCC(=O)O)NC(=O)[C@H](C(C)C)NC(=O)[C@H](CC3CCCCC3)NC(=O)[C@H](CCN)NC(=O)[C@@H](CC(C)C)NC(=O)[C@H](CCCN)NC(=O)[C@H](Cc3ccc(OCC(=O)O)cc3)NC(=O)[C@H](Cc3ccc(-c4ccccc4)cc3)NC(=O)[C@H](Cc3ccc(OCC(=O)O)cc3)NC(=O)[C@H](Cc3cccc(C)c3)NC(=O)[C@H](CC(=O)O)NC2=O)cc1 [Compound 1815] ({CH2CO}-RY(Propargyl)D[Phe(3-Me)]Y(Carboxymethyl)[Bip]Y(Carboxymethyl)[Orn][dL][Dab][Cha]VEC[Dab]-NH2; thioether N-14)	22.2
Cc1cccc(C[C@@H]2NC(=O)[C@H](CC(=O)O)NC(=O)[C@H](Cc3ccc(C(=O)O)cc3)NC(=O)[C@H](Cc3ccncc3)NC(=O)CSC[C@@H](C(=O)N[C@@H](C)C(N)=O)NC(=O)[C@H]([C@@H](C)O)NC(=O)[C@H](C(C)C)NC(=O)[C@H](CC3CCCCC3)NC(=O)[C@H](CCN)NC(=O)[C@@H](Cc3ccccc3)NC(=O)[C@H](CCCN)NC(=O)[C@H](CCC(=O)O)NC(=O)[C@H](Cc3ccc(-c4ccccc4)cc3)NC(=O)[C@H](C(C)C)NC2=O)c1 [Compound 1428] ({CH2CO}-[4Pal][Phe(4-COOH)]D[Phe(3-Me)]V[Bip]E[Orn][dF][Dab][Cha]VTCA-NH2; thioether N-14)	18.4
Cc1cccc(C[C@@H]2NC(=O)[C@H](CC(=O)O)NC(=O)[C@H](Cc3ccc(C(=O)O)cc3)NC(=O)[C@H](Cc3ccncc3)NC(=O)CSC[C@@H](C(=O)N[C@@H](C)C(N)=O)NC(=O)[C@H]([C@@H](C)O)NC(=O)[C@H](C(C)C)NC(=O)[C@H](CC3CCCCC3)NC(=O)[C@H](CCN)NC(=O)[C@@H](CC(C)C)NC(=O)[C@H](CCCN)NC(=O)[C@H](c3ccccc3)NC(=O)[C@H](Cc3ccc(-c4ccccc4)cc3)NC(=O)[C@H](C(C)C)NC2=O)c1 [Compound 1616]	9.3
CCCC[C@H]1NC(=O)[C@H](CCCN)NC(=O)[C@H](CCCNC(N)=O)NC(=O)[C@H](Cc2ccc(-c3ccccc3)cc2)NC(=O)[C@H](C(C)C)NC(=O)[C@H](Cc2c[nH]c3ccccc23)NC(=O)[C@H](CC(=O)O)NC(=O)[C@H](Cc2ccncc2)NC(=O)[C@H](Cc2ccc(OCC(=O)O)cc2)NC(=O)CSC[C@@H](C(=O)N[C@@H](C)C(N)=O)NC(=O)[C@H]([C@@H](C)O)NC(=O)[C@H](C(C)C)NC(=O)[C@H](CC2CCCCC2)NC(=O)[C@H](CCN)NC1=O [Compound 1702]	17
CC(C)C[C@H]1NC(=O)[C@H](CCCN)NC(=O)[C@H](C(C)C)NC(=O)[C@H](Cc2ccc(-c3ccccc3)cc2)NC(=O)[C@H](C(C)C)NC(=O)[C@H](Cc2ccc(O)c(Cl)c2)NC(=O)[C@H](CC(=O)O)NC(=O)[C@H](Cc2ccc(OCC(=O)O)cc2)NC(=O)[C@H](CN)NC(=O)CSC[C@@H](C(=O)N[C@@H](CCN)C(N)=O)NC(=O)[C@H](CCCCN)NC(=O)[C@H](C(C)C)NC(=O)[C@H](CC2CCCCC2)NC(=O)[C@H](CCN)NC1=O [Compound 2035] ({CH2CO}-[Dap]Y(Carboxymethyl)D[Tyr(3-Cl)]V[Bip]V[Orn][dL][Dab][Cha]VKC[Dab]-NH2; thioether N-14)	15
C#CCOc1ccc(C[C@@H]2NC(=O)[C@H](Cc3ccc(-c4ccccc4)cc3)NC(=O)[C@H](Cc3ccc(C(=O)O)cc3)NC(=O)[C@H](Cc3cccc(C)c3)NC(=O)[C@H](CC(=O)O)NC(=O)[C@H](Cc3ccc(C(=O)O)cc3)NC(=O)[C@H](CC)NC(=O)CSC[C@@H](C(=O)N[C@@H](CCN)C(N)=O)NC(=O)[C@H](CCC(=O)O)NC(=O)[C@H](C(C)C)NC(=O)[C@H](CC3CCCCC3)NC(=O)[C@H](CCN)NC(=O)[C@@H](CC(C)C)NC(=O)[C@H](CCCN)NC2=O)cc1 [Compound 1839] ({CH2CO}-[Abu][Phe(4-COOH)]D[Phe(3-Me)][Phe(4-COOH)][Bip]Y(Propargyl)[Orn][dL][Dab][Cha]VEC[Dab]-NH2; thioether N-14)	2.3
CC[C@H](C)[C@@H]1NC(=O)[C@H](Cc2ccc(-c3ccccc3)cc2)NC(=O)[C@H](C(C)C)NC(=O)[C@H](Cc2c[nH]c3ccccc23)NC(=O)[C@H](CC(=O)O)NC(=O)[C@H](Cc2ccc(C(=O)O)cc2)NC(=O)[C@H](CN)NC(=O)CSC[C@@H](C(=O)N[C@@H](C)C(N)=O)NC(=O)[C@H]([C@@H](C)O)NC(=O)[C@H](C(C)C)NC(=O)[C@H](CC(C)C)NC(=O)[C@H](CCN)NC(=O)[C@@H](CC(C)C)NC(=O)[C@H](CCCN)NC1=O [Compound 1052] ({CH2CO}-[Dap][Phe(4-COOH)]DWV[Bip]I[Orn][dL][Dab]LVTCA-NH2; thioether N-14)	11.8
CC(C)C[C@H]1NC(=O)[C@H](CCCN)NC(=O)[C@H](CCC(=O)O)NC(=O)[C@H](Cc2ccc(-c3ccccc3)cc2)NC(=O)[C@H](C(C)C)NC(=O)[C@H](Cc2c[nH]c3ccccc23)NC(=O)[C@H](CC(=O)O)NC(=O)[C@H](Cc2ccc(OCC(=O)O)cc2)NC(=O)[C@H](CN)NC(=O)CSC[C@@H](C(=O)N[C@@H](C)C(N)=O)NC(=O)[C@H]([C@@H](C)O)NC(=O)[C@H](C(C)C)NC(=O)[C@H](CC2CCCCC2)NC(=O)[C@H](CCN)NC1=O [Compound 1425]	16.8
CC(C)C[C@H]1NC(=O)[C@H](CCCN)NC(=O)[C@H](Cc2ccc(C(=O)O)cc2)NC(=O)[C@H](Cc2ccc(-c3ccccc3)cc2)NC(=O)[C@H](Cc2ccc(OC3CCCCC3)cc2)NC(=O)[C@H](Cc2cccc(C(F)(F)F)c2)NC(=O)[C@H](CC(=O)O)NC(=O)[C@H](Cc2ccc(C(=O)O)cc2)NC(=O)[C@H](CN2CCOCC2)NC(=O)CSC[C@@H](C(=O)N[C@@H](CCN)C(N)=O)NC(=O)[C@H](CCC(=O)O)NC(=O)[C@H](C(C)C)NC(=O)[C@H](CC2CCCCC2)NC(=O)[C@H](CCN)NC1=O [Example 2729] ({CH2CO}-[Ala(morpholin-4-yl)][Phe(4-COOH)]D[Phe(3-CF3)]Y(X1)[Bip][Phe(4-COOH)][Orn][dL][Dab][Cha]VEC[Dab]-NH2; thioether N-14)	2
